Assay results reported in PMC10487708, “Chlorin E6-Curcumin-Mediated Photodynamic Therapy Promotes an Anti-Photoaging Effect in UVB-Irradiated Fibroblasts” (International Journal of Molecular Sciences, 2023).
Values joined by “and” are separate entries in the source; they are usually repeats but may differ in a detail not shown here. Equal values may be shown once. Read-outs that look alike come from different tables or passages of the source.

Experiments:
[1] = ABTS radical scavenging activity; assay type: biochemical
Method: […] in 2.5 mM potassium persulfate for more than 16 h to develop 7 mM 2,2′-azinobis-(3-ethylbenzothiazoline-6-sulfonic acid diammonium salt) (ABTS), and ethanol was diluted to obtain an absorbance of 0.3 at 620 nm. Each composite sample was diluted by concentration, and 100 μL of the sample was put into each well along with 50 μL each of ABTS reagent and solvent; reacted at room temperature for 10 min, and absorbance was measured at 620 nm. ABTS activity inhibition (%) = 100 − [test group-blank]/(control group-blank) × 100]

[2] = ORAC (oxygen radical absorbance capacity) assay; assay type: biochemical; conditions: Trolox equivalent
Method: The ORAC assay is based on the scavenging of peroxyl radicals generated by 2,2′-azobis(2-methylpropioamidine) dihydrochloride (AAPH), which prevents the degradation of the fluorescein probe. The ORAC values were calculated as the area under the curve (AUC) and expressed as µM of Trolox equivalent (TE).

Hs68 cells = assay: MTT cell viability of Hs68 cells with or without LED light; assay type: cell-based, human; conditions: for IC50: Homo sapiens, light or radiation study, Hs68 cells
Method: Data were represented as mean ± SD from at least three independent experiments and analyzed by one-way ANOVA with Tukey’s post hoc test, * p < 0.01, compared with vehicle-treated control.
Hs68 and BALB/c 3T3 cell viability was measured using a 3-[4,5-dimethylthylthiazol-2-yl]-2,5 diphenyl tetrazolium bromide (MTT) assay. The cells were cultured in 24-well plates at a density of 3 × 10^4 cells per well or BALB/c 3T3 cells at a density of 1 × 10^4 cells per well. […] The Hs68 cells were then exposed to LED light (660 nm; 89 W/m^2; 20 J/cm^2) for 37 min 27 s and incubated for 3 h. […] The cells were washed and treated with MTT, after which the plates were incubated at 37 °C in the dark for 2 h. After the formation of formazan, 100 µL of DMSO was added, and the absorbance was measured at 570 nm using a microtiter plate reader (Thermo-scientific, Skanlt software 5.0, Waltham, MA, USA)

[3] = dark, read-out: Dark Condition (EC50, μM) ABTS radical scavenging

Row | Structure (SMILES) | EC50 [1, 3] | ORAC Dark Condition (TE, μM) ([2]; 1 μM compound) | ORAC Dark Condition (TE, μM) ([2]; 10 μM compound) | EC50 ([1]; LED light, read-out: LED Condition (EC50, μM) ABTS radical scavenging) | IC50 (Hs68 cells; LED 660 nm 20 J/cm^2, MTT, read-out: Phototoxicity (IC50)) [µM] | IC50 (Hs68 cells; without LED irradiation, MTT, read-out: Dark Toxicity (IC50)) [µM] | cytotoxicity for Hs68 cells (Hs68 cells; dark, up to 1000 nM) | ORAC LED Condition (TE, μM) ([2]; LED 20 J/cm^2, 1 μM compound) [µM] | ORAC LED Condition (TE, μM) ([2]; LED 20 J/cm^2, 10 μM compound) [µM]
1 | NCC(=O)CCC(=O)O [5-ALA, 5-Aminolevulinic acid, reference compound] | 60.3 ± 9.51 µM | undetectable | undetectable | – | – | – | – | – | –
2 | C=Cc1c(C)c2cc3nc(c(CC(=O)O)c4[nH]c(cc5nc(cc1[nH]2)C(C)=C5CC)c(C)c4C(=O)O)[C@@H](CCC(=O)O)[C@@H]3C [Ce6, Chlorin e6] | ~13.6 µM and 13.6 µM | 18.5 µM | 47.72 µM | ~19.8 µM and 19.8 µM | 0.615 | ≥ 1 | almost no cytotoxicity | 22.11 | 53.85
